Bridge positions count the residues as written; N and C are the ends. Square brackets hold non-standard residues; d marks the D form. Peptide text beside a SMILES is read from it. * marks the point of attachment. Bip = N[C@@H](Cc1ccc(-c2ccccc2)cc1)C(=O)O; Phe(3-Me) = Cc1cccc(C[C@H](N)C(=O)O)c1; 3Pal = N[C@@H](Cc1cccnc1)C(=O)O; 4Pal = N[C@@H](Cc1ccncc1)C(=O)O; Cha = N[C@@H](CC1CCCCC1)C(=O)O; dCha = N[C@H](CC1CCCCC1)C(=O)O; dNle = CCCC[C@@H](N)C(=O)O; Carboxymethyl = O=C(O)C*; Orn = NCCC[C@H](N)C(=O)O; Aun = NCCCCCCCCCCC(=O)O; Dab = NCC[C@H](N)C(=O)O; Dap = NC[C@H](N)C(=O)O; AEEA = NCCOCCOCC(=O)O

T1 sequence (Q15116 25-288): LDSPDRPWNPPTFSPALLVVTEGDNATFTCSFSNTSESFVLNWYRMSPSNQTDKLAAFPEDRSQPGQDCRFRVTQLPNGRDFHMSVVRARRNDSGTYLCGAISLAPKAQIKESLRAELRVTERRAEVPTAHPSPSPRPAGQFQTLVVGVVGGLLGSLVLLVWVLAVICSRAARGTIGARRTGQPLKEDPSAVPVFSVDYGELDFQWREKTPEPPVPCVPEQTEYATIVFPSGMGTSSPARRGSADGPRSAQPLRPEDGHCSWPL

This experiment has as its target T1, PD-1/PD-L1 interaction (PE-labeled human PD-L1-Ig binding to Jurkat cell line over-expressing human PD-1) (Homo sapiens, UniProt Q15116).
T1 construct: expressed in transfected cells; host or cells: Jurkat
The experiment is described as follows: Jurkat-PD-1 Cell Binding High-Content Screening Assay (CBA). The experiment is classed as cell-based. The conditions noted are these: Jurkat cell line over-expressing human PD-1; PE-labeled PD-L1-Ig 20 nM final; read-out: Jurkat hPD1-PDL1 IC50. The method in brief:
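Read-out is high-content imaging of cell-bound phycoerythrin-tagged PD-L1-Ig on fixed, Hoechst-counterstained Jurkat cells that over-express human PD-1. Compound exposure lasts 2 h at 37° C before the labeled ligand (20 nM final) is added for a further hour.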
Usually IC50 stands for the concentration that inhibits the measured activity by half. Consider `Cc1cccc(C[C@@H]2NC(=O)[C@H](CC(=O)O)NC(=O)[C@H](Cc3ccc(OCC(=O)O)cc3)NC(=O)[C@H](CN)NC(=O)CSC[C@@H](C(=O)N[C@@H](CCCCN)C(=O)NCCCCCCCCCCC(=O)O)NC(=O)[C@H](CN)NC(=O)[C@H](C(C)C)NC(=O)[C@H](CC3CCCCC3)NC(=O)[C@H](CCN)NC(=O)[C@@H](CC3CCCCC3)NC(=O)[C@H](CCCN)NC(=O)[C@H](C(C)C)NC(=O)[C@H](Cc3ccc(-c4ccccc4)cc3)NC(=O)[C@H](C(C)C)NC2=O)c1` [Compound 2686] ({CH2CO}-[Dap]Y(Carboxymethyl)D[Phe(3-Me)]V[Bip]V[Orn][dCha][Dab][Cha]V[Dap]CK[Aun]-OH; thioether N-14), for which the IC50 came to 16.1 nM.

Regarding `CCCC[C@H]1NC(=O)[C@H](CCCN)NC(=O)[C@H](C(C)C)NC(=O)[C@H](Cc2ccc(-c3ccccc3)cc2)NC(=O)[C@H](C(C)C)NC(=O)[C@H](Cc2cccc(C)c2)NC(=O)[C@H](CC(=O)O)NC(=O)[C@H](Cc2ccc(OCC(=O)O)cc2)NC(=O)[C@H](CN)NC(=O)CSC[C@@H](C(=O)N[C@@H](CCCCN)C(=O)NCCCCCCCCCCC(=O)O)NC(=O)[C@H](CCCN)NC(=O)[C@H](C(C)C)NC(=O)[C@H](CC2CCCCC2)NC(=O)[C@H](CCN)NC1=O` [Compound 2687] ({CH2CO}-[Dap]Y(Carboxymethyl)D[Phe(3-Me)]V[Bip]V[Orn][dNle][Dab][Cha]V[Orn]CK[Aun]-OH; thioether N-14), the 50% inhibitory concentration (IC50) is 10 nM.

As to `Cc1cccc(C[C@@H]2NC(=O)[C@H](CC(=O)O)NC(=O)[C@H](Cc3ccc(OCC(=O)O)cc3)NC(=O)[C@H](CN)NC(=O)CSC[C@@H](C(=O)N[C@@H](CCCCN)C(=O)NCCCCCCCCCCC(=O)O)NC(=O)[C@H](CCCN)NC(=O)[C@H](C(C)C)NC(=O)[C@H](CC3CCCCC3)NC(=O)[C@H](CCN)NC(=O)[C@@H](CC3CCCCC3)NC(=O)[C@H](CCCN)NC(=O)[C@H](C(C)C)NC(=O)[C@H](Cc3ccc(-c4ccccc4)cc3)NC(=O)[C@H](C(C)C)NC2=O)c1` [Compound 2688] ({CH2CO}-[Dap]Y(Carboxymethyl)D[Phe(3-Me)]V[Bip]V[Orn][dCha][Dab][Cha]V[Orn]CK[Aun]-OH; thioether N-14), the half-maximal inhibitory concentration (IC50) was found to be 15.6 nM.

Regarding `Cc1cccc(C[C@@H]2NC(=O)[C@H](CC(=O)O)NC(=O)[C@H](Cc3ccc(OCC(=O)O)cc3)NC(=O)[C@H](CN)NC(=O)CSC[C@@H](C(=O)NCCOCCOCC(=O)NCCCCCCCCCCC(=O)O)NC(=O)[C@H](CCCN)NC(=O)[C@H](C(C)C)NC(=O)[C@H](CC3CCCCC3)NC(=O)[C@H](CCN)NC(=O)[C@@H](CC(C)C)NC(=O)[C@H](CCCN)NC(=O)[C@H](Cc3ccc(O)cc3)NC(=O)[C@H](Cc3ccc(-c4ccccc4)cc3)NC(=O)[C@H](Cc3ccc(O)cc3)NC2=O)c1` [Compound 2691] ({CH2CO}-[Dap]Y(Carboxymethyl)D[Phe(3-Me)]Y[Bip]Y[Orn][dL][Dab][Cha]V[Orn]C[AEEA][Aun]-OH; thioether N-14), the half-inhibitory concentration (IC50) was found to be 15 nM. In the case of `Cc1cccc(C[C@@H]2NC(=O)[C@H](CC(=O)O)NC(=O)[C@H](Cc3ccc(OCC(=O)O)cc3)NC(=O)[C@H](CN)NC(=O)CSC[C@@H](C(=O)NCCOCCOCC(=O)NCCCCCCCCCCC(=O)O)NC(=O)[C@H](CCCN)NC(=O)[C@H](C(C)C)NC(=O)[C@H](CC3CCCCC3)NC(=O)[C@H](CCN)NC(=O)[C@@H](CC(C)C)NC(=O)[C@H](CCCN)NC(=O)[C@H](Cc3ccc(O)cc3)NC(=O)[C@H](Cc3ccc(-c4ccccc4)cc3)NC(=O)[C@H](C(C)C)NC2=O)c1` [Compound 2692] ({CH2CO}-[Dap]Y(Carboxymethyl)D[Phe(3-Me)]V[Bip]Y[Orn][dL][Dab][Cha]V[Orn]C[AEEA][Aun]-OH; thioether N-14) it was 6.3 nM; in that of `Cc1cccc(C[C@@H]2NC(=O)[C@H](CC(=O)O)NC(=O)[C@H](Cc3ccc(OCC(=O)O)cc3)NC(=O)[C@H](CN)NC(=O)CSC[C@@H](C(=O)NCCCCCCCCCCC(=O)O)NC(=O)[C@H](CCCN)NC(=O)[C@H](C(C)C)NC(=O)[C@H](CC3CCCCC3)NC(=O)[C@H](CCN)NC(=O)[C@@H](CC(C)C)NC(=O)[C@H](CCCN)NC(=O)[C@H](Cc3ccc(O)cc3)NC(=O)[C@H](Cc3ccc(-c4ccccc4)cc3)NC(=O)[C@H](Cc3ccc(O)cc3)NC2=O)c1` [Compound 2693] ({CH2CO}-[Dap]Y(Carboxymethyl)D[Phe(3-Me)]Y[Bip]Y[Orn][dL][Dab][Cha]V[Orn]C[Aun]-OH; thioether N-14), 13 nM. In the case of `Cc1cccc(C[C@@H]2NC(=O)[C@H](CC(=O)O)NC(=O)[C@H](Cc3ccc(OCC(=O)O)cc3)NC(=O)[C@H](CN)NC(=O)CSC[C@@H](C(=O)NCCCCCCCCCCC(=O)O)NC(=O)[C@H](CCCN)NC(=O)[C@H](C(C)C)NC(=O)[C@H](CC3CCCCC3)NC(=O)[C@H](CCN)NC(=O)[C@@H](CC(C)C)NC(=O)[C@H](CCCN)NC(=O)[C@H](Cc3ccc(O)cc3)NC(=O)[C@H](Cc3ccc(-c4ccccc4)cc3)NC(=O)[C@H](C(C)C)NC2=O)c1` [Compound 2694] ({CH2CO}-[Dap]Y(Carboxymethyl)D[Phe(3-Me)]V[Bip]Y[Orn][dL][Dab][Cha]V[Orn]C[Aun]-OH; thioether N-14) it was 9.9 nM. Under `Cc1cccc(C[C@@H]2NC(=O)[C@H](CC(=O)O)NC(=O)[C@H](Cc3ccc(O)cc3)NC(=O)[C@H](CC(N)=O)NC(=O)CSC[C@@H](C(=O)N[C@@H](CCN)C(=O)NCCOCCOCC(=O)NCCCCCCCCCCC(=O)O)NC(=O)[C@H](CCCN)NC(=O)[C@H](C(C)C)NC(=O)[C@H](CC3CCCCC3)NC(=O)[C@H](CCN)NC(=O)[C@@H](CC(C)C)NC(=O)[C@H](CCCN)NC(=O)[C@H](Cc3ccc(O)cc3)NC(=O)[C@H](Cc3ccc(-c4ccccc4)cc3)NC(=O)[C@H](C(C)C)NC2=O)c1` [Compound 2695] ({CH2CO}-NYD[Phe(3-Me)]V[Bip]Y[Orn][dL][Dab][Cha]V[Orn]C[Dab][AEEA][Aun]-OH; thioether N-14) stands 5.1 nM. Turning to `Cc1cccc(C[C@@H]2NC(=O)[C@H](CC(=O)O)NC(=O)[C@H](Cc3ccc(O)cc3)NC(=O)[C@H](CC(N)=O)NC(=O)CSC[C@@H](C(=O)N[C@@H](CCN)C(=O)NCCCCCCCCCCC(=O)O)NC(=O)[C@H](CCCN)NC(=O)[C@H](C(C)C)NC(=O)[C@H](CC3CCCCC3)NC(=O)[C@H](CCN)NC(=O)[C@@H](CC(C)C)NC(=O)[C@H](CCCN)NC(=O)[C@H](Cc3ccc(O)cc3)NC(=O)[C@H](Cc3ccc(-c4ccccc4)cc3)NC(=O)[C@H](C(C)C)NC2=O)c1` [Compound 2696] ({CH2CO}-NYD[Phe(3-Me)]V[Bip]Y[Orn][dL][Dab][Cha]V[Orn]C[Dab][Aun]-OH; thioether N-14), the IC50 was 19.1 nM. With `Cc1cccc(C[C@@H]2NC(=O)[C@H](CC(=O)O)NC(=O)[C@H](Cc3ccc(OCC(=O)O)cc3)NC(=O)[C@H](CC(N)=O)NC(=O)CSC[C@@H](C(=O)N[C@@H](CCN)C(=O)NCCOCCOCC(=O)NCCCCCCCCCCC(=O)O)NC(=O)[C@H](CCCN)NC(=O)[C@H](C(C)C)NC(=O)[C@H](CC3CCCCC3)NC(=O)[C@H](CCN)NC(=O)[C@@H](CC(C)C)NC(=O)[C@H](CCCN)NC(=O)[C@H](Cc3ccc(O)cc3)NC(=O)[C@H](Cc3ccc(-c4ccccc4)cc3)NC(=O)[C@H](C(C)C)NC2=O)c1` [Compound 2697] ({CH2CO}-NY(Carboxymethyl)D[Phe(3-Me)]V[Bip]Y[Orn][dL][Dab][Cha]V[Orn]C[Dab][AEEA][Aun]-OH; thioether N-14), the IC50 was determined as 4.9 nM. In the case of `Cc1cccc(C[C@@H]2NC(=O)[C@H](CC(=O)O)NC(=O)[C@H](Cc3ccc(OCC(=O)O)cc3)NC(=O)[C@H](CC(N)=O)NC(=O)CSC[C@@H](C(=O)N[C@@H](CCN)C(=O)NCCCCCCCCCCC(=O)O)NC(=O)[C@H](CCCN)NC(=O)[C@H](C(C)C)NC(=O)[C@H](CC3CCCCC3)NC(=O)[C@H](CCN)NC(=O)[C@@H](CC(C)C)NC(=O)[C@H](CCCN)NC(=O)[C@H](Cc3ccc(O)cc3)NC(=O)[C@H](Cc3ccc(-c4ccccc4)cc3)NC(=O)[C@H](C(C)C)NC2=O)c1` [Compound 2698] ({CH2CO}-NY(Carboxymethyl)D[Phe(3-Me)]V[Bip]Y[Orn][dL][Dab][Cha]V[Orn]C[Dab][Aun]-OH; thioether N-14) it was 11 nM. Under `Cc1cccc(C[C@@H]2NC(=O)[C@H](CC(=O)O)NC(=O)[C@H](Cc3cccnc3)NC(=O)[C@H](CC(N)=O)NC(=O)CSC[C@@H](C(=O)N[C@@H](CCN)C(=O)NCCCCCCCCCCC(=O)O)NC(=O)[C@H](CCCN)NC(=O)[C@H](C(C)C)NC(=O)[C@H](CC3CCCCC3)NC(=O)[C@H](CCN)NC(=O)[C@@H](CC(C)C)NC(=O)[C@H](CCCN)NC(=O)[C@H](Cc3ccc(O)cc3)NC(=O)[C@H](Cc3ccc(-c4ccccc4)cc3)NC(=O)[C@H](C(C)C)NC2=O)c1` [Compound 2700] ({CH2CO}-N[3Pal]D[Phe(3-Me)]V[Bip]Y[Orn][dL][Dab][Cha]V[Orn]C[Dab][Aun]-OH; thioether N-14) stands 17.9 nM. In the case of `CC(C)C[C@H]1NC(=O)[C@H](CCCN)NC(=O)[C@H](Cc2ccc(O)cc2)NC(=O)[C@H](Cc2ccc(-c3ccccc3)cc2)NC(=O)[C@H](C(C)C)NC(=O)[C@H](Cc2c[nH]c3ccccc23)NC(=O)[C@H](CC(=O)O)NC(=O)[C@H](Cc2ccc(OCC(=O)O)cc2)NC(=O)[C@H](Cc2ccncc2)NC(=O)CSC[C@@H](C(=O)N[C@@H](CCN)C(=O)NCCOCCOCC(=O)NCCCCCCCCCCC(=O)O)NC(=O)[C@H](CCCN)NC(=O)[C@H](C(C)C)NC(=O)[C@H](CC2CCCCC2)NC(=O)[C@H](CCN)NC1=O` [Compound 2701] ({CH2CO}-[4Pal]Y(Carboxymethyl)DWV[Bip]Y[Orn][dL][Dab][Cha]V[Orn]C[Dab][AEEA][Aun]-OH; thioether N-14) it was 6.7 nM.
